Experimental data from patent US20130217132A1, “METHODS, COMPOSITIONS AND USE FOR ENHANCING CHEMICAL TOLERANCE BY MICROORGANISMS” (priority 2009, published 2013).
Like-named read-outs stand apart in the source and are kept apart here.

Experiments:
[1] = system: BW25113 ArecA cells overexpressing lpcA gene (pLPCA); assay type: cell-based, E. coli; conditions: for OD600 (cell growth in the presence of furfural): furfural 1 g/L, lpcA overexpression, FIG. 19
Description: (§1) FIGS. 17A-17B represent methods of identification of a gene related to restoring tolerance. Multiple genome-wide SCALE selection was performed in the presence of ethanol, furfural and acetate respectively. The data set obtained for each compound was compared to the others. Alleles enriched in all cases were identified. […] To restore tolerance, overexpression of identified genes in bacterial cells was performed. For example, lpcA ORF was cloned into the pBTL-1 vector. BW25113 ArecA cells transformed with the blank pBTL-1 vector were used as a control. BW25113 ArecA cells overexpressing lpcA gene were referred to as pLPCA. Cells were inoculated at a standard cell density into MOPS minimal media, supplemented with furfural, acetate or ethanol. After 24 hours, growth of the cells was analyzed.
(§2) The indicated cells were grown in MOPS minimal media supplemented with glucose as a carbon source. Furfural was added to the media at the concentration of 1 g/L. Arabinose was added at 10 mM where indicated to gauge effect of AraC binding. The BW25113 araC::FRT-kan clone corresponds to JW0063, a BW25113 araC knockout mutant ordered from the Keio Collection directly. pBTL-1 represented the blank vector, and pLPCA referred to lpcA gene overexpression. […] To analyze the LPS level in the cells indicated in FIG. 19, LPS are extracted from the cells grown to exponential phase. Loading of LPS for the protein gel is normalized to the cell number. The gel is stained to visualize LPS protein bands after desired separation is obtained.
(§3) BW25113, MG1655, and derivatives were used where indicated. JW0063, an araC mutant of BW25113 was obtained from the Coli Genetic Stock Center (Yale). Overnight bacterial cultures were grown in Luria-Bertani medium with shaking. MOPS minimal medium (previously presented) with 0.2% glucose as a carbon source, was used for all seed cultures and growth studies. Seed cultures were inoculated at 2 v/v % from an overnight culture and were grown to mid-exponential phase. Growth cultures were inoculated with 10 v/v % seed cultures of an OD600 of 0.195-0.200 for an initial optical density of ˜0.02. Carbenicillin and kanamycin were used where appropriate at 100 μg/ml and 30 μg/ml, respectively. The pBTL-1 vector (previously described) was used as the control blank vector for all growth studies. Genome-wide furfural selection

[2] = system: BW25113 ArecA cells transformed with the blank pBTL-1 vector; assay type: cell-based, E. coli
Description: as §1, §2, §3

[3] = system: BW25113 araC::FRT-kan clone with overexpression of lpcA gene; assay: Cell growth (OD600) in MOPS minimal media with furfural, araC deletion plus lpcA overexpression; assay type: cell-based, E. coli; conditions: furfural 1 g/L, araC deletion and lpcA overexpression
Description: In other exemplary methods, tolerance and expression of LPS was restored in a microorganism. FIG. 19 represents an example of restoration of tolerance and LPS expression in BW25113 ArecA clone. The indicated cells were grown in MOPS minimal media supplemented with glucose as a carbon source. Furfural was added to the media at the concentration of 1 g/L. Arabinose was added at 10 mM where indicated to gauge effect of AraC binding. The BW25113 araC::FRT-kan clone corresponds to JW0063, a BW25113 araC knockout mutant ordered from the Keio Collection directly. pBTL-1 represented the blank vector, and pLPCA referred to lpcA gene overexpression. Consistent with the Examples above, overexpression of lpcA gene increased cell growth (OD600 of 0.1 vs. 0.05) in the presence of furfural. Addition of Arabinose to the lpcA gene overexpression cells could further enhance the effect (OD600 of 0.3). […] To analyze the LPS level in the cells indicated in FIG. 19, LPS are extracted from the cells grown to exponential phase. Loading of LPS for the protein gel is normalized to the cell number. The gel is stained to visualize LPS protein bands after desired separation is obtained.
BW25113, MG1655, and derivatives were used where indicated. JW0063, an araC mutant of BW25113 was obtained from the Coli Genetic Stock Center (Yale). Overnight bacterial cultures were grown in Luria-Bertani medium with shaking. […]

pBTL-1 lpcA culture = assay type: cell-based, E. coli; conditions: aerobic growth in 1 g/L furfural
Description: Certain experiments described herein were performed in E. coli BW25113 recA-, with the kanamycin resistance gene removed.
Cultures were grown in 10 ml MOPS minimal media, 100 μg carbenicillin/ml, and either 1 g furfural/1 supplemented, 2 g HMF/1, or 4 g acetate/1, in 15 ml conical tubes at 37° C. The optical density of 1 ml culture was measured with a spectrophotometer at 600 nm. A natural log transformation of the data was then calculated and then a regression line was fit to the data to calculate specific growth, which is […] to the culture doubling time. The blank vector, pBTL-1, served as the control. The lpcA gene was cloned into the pBTL-1 using standard cloning techniques and primers designed to amplify the gene from template DNA.

[4] = system: aldehyde dehydrogenase (A1DH; EC 1.2.1.5); conditions: 0.12 g/L furfural; cited from earlier work
[5] = system: pyruvate dehydrogenase (PDH) complex; conditions: 0.12 g/L furfural; cited from earlier work
ADH = conditions: 0.12 g/L furfural; cited from earlier work
E. coli LYO1 = conditions: cited from earlier work

## O=Cc1ccco1 [furfural, furan-2-carbaldehyde]
[1]; Arabinose 10 mM
  OD600 (cell growth in the presence of furfural): 0.3
[1]; no Arabinose
  OD600 (cell growth in the presence of furfural): 0.1
[1]; furfural 1 g/l
  improvement of final optical density by pLPCA in BW25113: 252±8%
[1]; pLPCA cells, 1 g/L of furfural
  OD600 at 24 hr: about 1.2
[2]; control cells, 1 g/L of furfural
  OD600 at 24 hr: about 0.2
[2]; furfural 1 g/L, blank vector pBTL-1, no Arabinose, FIG. 19
  OD600 (cell growth in the presence of furfural): 0.05
[3]; absence of Arabinose
  OD600 (cell growth in the presence of furfural): 0.5
[3]; presence of Arabinose
  OD600 (cell growth in the presence of furfural): 1.0
pBTL-1 lpcA culture
  Final OD600 (24 hr): 0.918
pBTL-1 lpcA culture; n=3
  Specific Growth: 0.153 h⁻¹
[4]
  activity reduction: more than 80%
[5]
  activity reduction: more than 80%
ADH
  activity inhibited: 60%
E. coli LYO1
  ethanol production: inhibited
